Results on seven compounds are retold here after ChEMBL document CHEMBL3352736, “Synthesis and preliminary biological evaluation of new antiproliferative aromatic analogues of 1α,25-dihydroxyvitamin D3” (Eur J Med Chem, 2014).

Bounds are passed on as bounds.

This experiment concerns HL-60. Nature of the experiment: […] of human HL60 cells incubated for 144 hrs by Wst-1 dye based assay. The class given is functional. As to conditions: HL-60, 144 h.
As usually defined, the IC50 is the concentration at which inhibition is half-maximal. A lower IC50 goes with greater potency in that assay. The compound `CC(C)CCC[C@@H](C)[C@H]1CC[C@H]2/C(=C/c3cccc(C(O)CCO)c3)CCC[C@]12C` (some centres not stated) had an IC50 of 5.4 µM. For `C[C@H](CCCC(C)(C)O)[C@H]1CC[C@H]2/C(=C/c3cccc(C(O)CCO)c3)CCC[C@]12C` (some centres not stated), the IC50 was 1.4 µM.

In the case of `C[C@H](CC#CC(C)(C)O)[C@H]1CC[C@H]2/C(=C/c3cccc(C(O)CCO)c3)CCC[C@]12C` (some centres not stated), the IC50 came out at 7.8 µM. As for `CC(C)CCC[C@@H](C)[C@H]1CC[C@H]2/C(=C/c3ccc(CO)c(CO)c3)CCC[C@]12C`, the half-maximal inhibitory concentration (IC50) was 63.2 µM.

`C[C@H](CC#CC(C)(C)O)[C@H]1CC[C@H]2/C(=C/c3ccc(CO)c(CO)c3)CCC[C@]12C` returned an IC50 of 0.6 µM. Take `CC(C)CCC[C@@H](C)[C@H]1CC[C@H]2/C(=C/c3cccc(CO)c3CO)CCC[C@]12C`: the IC50 is 32.4 µM. For `C[C@H](CC#CC(C)(C)O)[C@H]1CC[C@H]2/C(=C/c3cccc(CO)c3CO)CCC[C@]12C` the value was more than 100 µM.
